Active and inactive are the calls of the source. No cut-off for these calls is given here.
Assays:
Assay type in all cases: functional, cell-based
Caco-2 [1] = assay: Cytotoxicity against human Caco-2 cells at 100 uM after 72 hrs by MTT assay
Caco-2 [2] = assay: Cytotoxicity against human Caco-2 cells at 0.1 to 100 uM after 72 hrs by MTT assay
MIA PaCa-2 = assay: Cytotoxicity against human MIAPaCa2 cells at 0.1 to 100 uM after 72 hrs by MTT assay
HEp-2 = assay: Cytotoxicity against human Hep2 cells at 0.1 to 100 uM after 72 hrs by MTT assay
HeLa = assay: Cytotoxicity against human HeLa cells at 0.1 to 100 uM after 72 hrs by MTT assay
HT-29 = assay: Cytotoxicity against human HT-29 cells at 0.1 to 100 uM after 72 hrs by MTT assay

For `Cc1nc2ccccc2c2ccc(NC(=O)NCCCCCCCCCNC(=O)Nc3ccc4c(c3)c(C)nc3ccccc34)cc12`, the Activity (Caco-2 [1]) was “inactive”, the Activity (Caco-2 [2]) was “inactive” and the Activity (MIA PaCa-2) was “inactive”. The Activity (HEp-2) was “inactive”, the Activity (HeLa) was “inactive” and the Activity (HT-29) was “inactive”.
For `Cc1nc2ccccc2c2ccc(NC(=O)NCCNC(=O)Nc3ccc4c(c3)c(C)nc3ccccc34)cc12`, the Activity (Caco-2 [1]) was “inactive”.
For `Cc1nc2ccccc2c2ccc(NC(=O)NCCCCCCNC(=O)Nc3ccc4c(c3)c(C)nc3ccccc34)cc12`, the Activity (Caco-2 [1]) was “inactive”.

— ChEMBL document CHEMBL1208667, “Permanent positive charge strongly influences DNA/RNA binding and antiproliferative activity of urea-phenanthridinium conjugates” (Eur J Med Chem, 2010)
